Data taken from US20210283058A1, “METHOD FOR PRODUCING SUSTAINED-RELEASE DRUG, AND SUSTAINED-RELEASE DRUG” (GUNZE LIMITED, priority 2016, published 2021).

Experiment: Sustained release evaluated by weight loss curves from TG/DTA
Type: physicochemical
Settings: conditions a): 30° C. to 40° C. at 5° C./min, then 40° C. for 30 minutes
Procedure: The sustained release of the sustained-release drug obtained in Example 4 was evaluated by the following method. Weight loss curves were drawn from TG curves obtained using a thermogravimetry/differential thermal analysis (TG/DTA) apparatus (PerkinElmer, STA 6000) under the following conditions: conditions a) the sustained-release drug is heated from 30° C. to 40° C. at 5° C./min, followed by keeping the drug isothermally at 40° C. for 30 minutes; and conditions b) the sustained-release drug is heated from 30° C. to 50° C. at 5° C./min, followed by keeping the drug isothermally at 50° C. for 30 minutes. FIG. 6(a) (conditions a) and FIG. 6(b) (conditions b) show the obtained weight loss curves.

With `CC(C)[C@@H]1CC[C@@H](C)C[C@H]1O` [L-menthol] as the molecule, how does the “release of medicinal ingredient (weight loss curve)” value read?
The value was “significant volatility”.
